From patent publication US11559527B2 (priority 2017, dated 2023)

Columns and labels:
Assay type in all cases: cell-based, Human
[1] = test system: MCF7 cells; assay: Mitochondrial mass quantification by flow cytometry (MitoTracker Deep Red); conditions: 50 μM, 5 days, relative to vehicle
Excerpt: (§1) In order to assess whether the inhibition of DRP1 was actually being translated into a reduction in mitochondrial fission, the inventors stained the mitochondria of MCF7 cells with Mitotracker Deep Red, which is a marker of mitochondrial mass. […] The original images are black background with shades of red over the cells, whereas the images in FIG. 3 have been color-inverted and generated in grey scale. Mitochondrial mass was also quantified by flow cytometry. FIGS. 4A-4C show results of mitochondrial mass quantification. In FIG. 4A, Mitotracker Deep Red mean intensity relative to vehicle intensity is shown for 2-day and 5-day treatments.
MITOCHONDRIAL MASS QUANTIFICATION: To measure mitochondrial mass, cells were stained with MitoTracker Deep Red (M22426, Invitrogen). Briefly, 2×10^5 […] cells per well were seeded in 6-well plates. […] Cells were then incubated for 15 min at 37° C. with the 10 nM Mitotracker Deep Red probe diluted in PBS (D8662, Sigma). All subsequent steps were performed in the dark. Cells were washed in PBS, harvested, and resuspended in PBS. Mitotracker signal was quantified as mean fluorescent intensity of the viable cell population in a Fortessa flow cytometer (BD Bioscience). Results were analyzed using FlowJo software.

[2] = test system: MCF7 cells; assay: Mitochondrial staining with Mitotracker Deep Red (microscopy); conditions: 10 μM, 2- and 5-day treatment
Excerpt: as §1
MITOCHONDRIAL STAINING: One hundred thousand MCF7 cells were seeded onto coverslips in 12-well plates. When cells were attached, mDIVI-1 and vehicle treatments were performed in triplicate. After 2 days and 5 days, mitochondria were labeled by incubating cells for 15 min at 37° C. with 25 nM of MitoTracker DeepRed (M22426, Invitrogen) diluted in PBS (D8662, Sigma). Then, cells were washed with PBS, fixed in 2% paraformaldehyde (28908, Thermo Scientific) in PBS for 30 minutes at room temperature and mounted with ProLong® Gold Antifade Mountant reagent with DAPI (P36935, Invitrogen, Inc.). […]

[3] = test system: Wnt signaling; assay: Luciferase reporter assay MCF7-GFP-TCF/LEF(luc); conditions: 50 μM, 2 and 5 days
Excerpt: (§2) Mitochondrial fusion and fission may also have an impact in signaling pathways that regulate stem cell proliferation and survival. […] A range of reporter MCF7-GFP cell lines were generated, including MCF7-GFP-GLI(luc), MCF7-GFP-Rbp/Jk(luc), MCF7-GFP-SMAD(luc) and MCF7-GFP-TCF/LEF(luc), to assess Hedgehog signaling, Notch signaling, TGFβ signaling, and Wnt signaling, respectively. […] The data is shown in the four data plots in FIG. 9.
(§3) LUCIFERASE ASSAY: The Cignal Lenti reporter assay (luc) was used to monitor the activity of several signalling pathways in MCF7-GFP cells as explained previously. Luciferase Assay System (E1501, Promega) was performed according to manufacturer's instructions. 1×10^4 MCF7 […] were seeded in black-walled 96 well plates. When cells were attached, drug treatments were added for 18, 48 hours and 5 days. After treatment, Luciferase Assay was performed according to manufacturer's instructions and light signal was acquired in the Xenogen VivoVision IVIS Lumina. Results were normalized by SRB staining of cells grown in 96-well plates in parallel.
(§4) SULFORHODAMINE B (SRB) ASSAY: SRB (S9012, Sigma) measures total biomass by staining cellular proteins. […] Absorbance was spectrophotometrically measured at 562 nm in a FluoStar Omega plate reader (BMG Labtech). […]

[4] = test system: MCF7 cells; assay: Mitochondrial superoxide (MitoSOX, flow cytometry); conditions: both concentrations of mDIVI-1, compared to vehicle
Excerpt: (§5) Inhibition of the mitochondrial fission impacts on other mitochondrial processes, such as mitochondrial metabolism and general and mitochondrial oxidative stress. To confirm, MCF7 cells were stained with MitoSOX and CM-H2DCFDA, and mitochondrial superoxide and total ROS were quantified by flow cytometry. […] Whereas the increase in general ROS goes in line with the increase in mitochondrial content, the boost in the levels of mitochondrial superoxide in mDIV1-treated cells is actually bigger than the observed increased mitochondrial content.
(§6) LEVELS OF REACTIVE OXYGEN SPECIES AND MITOCHONDRIAL SUPEROXIDE: For both assays, 2×10^5 MCF7 cells were seeded in 35 mm plates. […] Reactive oxygen species (ROS) production was measured using CM-H2DCFDA (C6827, Invitrogen). Briefly, cells were incubated for 20 minutes at 37° C. with 1 μM CM-H2DCFDA diluted in PBS and then placed in complete media for 20 minutes at 37° C. in the dark, to render the dye fluorescent, according to the manufacturer. Mitochondrial superoxide was measured using MitoSOX Red Mitochondrial Superoxide Indicator (M36008, ThermoFisher Scientific). […] ROS signal and MitoSOX signal was quantified as mean fluorescent intensity of the viable cell population in a Fortessa flow cytometer (BD Bioscience). Results were analysed using FlowJo software.

[5] = test system: Notch signaling; assay: Luciferase reporter assay MCF7-GFP-Rbp/Jk(luc); conditions: 50 μM, 2 and 5 days
Excerpt: as §2, §3, §4

[6] = test system: Hedgehog signaling; assay: Luciferase reporter assay MCF7-GFP-GLI(luc); conditions: 50 μM, 2 and 5 days
Excerpt: as §2, §3, §4

[7] = test system: MCF7 cells; assay: Reactive oxygen species (CM-H2DCFDA, flow cytometry)
Excerpt: as §5, §6

[8] = test system: TGFβ signaling; assay: Luciferase reporter assay MCF7-GFP-SMAD(luc); conditions: 50 μM, 2 and 5 days
Excerpt: as §2, §3, §4

[9] = test system: MCF7 cells; assay: CD24/CD44 expression by FACS
Procedure: In human breast cancers, CSCs were first identified by the profile of expression of the cell surface marker CD24^−/CD44^+.
This is evident in FIGS. 10A and 10B.
The surviving fraction after 2 days and 5 days of growth was analyzed by FACS. MCF7 cells were either trypsinised or spun down and trypsinised and incubated with CD24 (IOTest CD24-PE, Beckman Coulter) and CD44 (APC mouse anti-human CD44, 559942, BD Pharmingen) for 15 minutes on ice. Cells were then rinsed twice in PBS, spun down, and resuspended with DAPI dye (D1306, Molecular probes) at 3 μM in PBS for 10 minutes. Samples were then analyzed by FACS (Fortessa, BD Bioscence). Only the live cell population, identified using the DAPI staining, was analyzed for CD24/CD44 expression. Data were analyzed using FlowJo software.

COc1cc(-n2c(S)nc3ccccc3c2=O)c(Cl)cc1Cl [mDIVI-1, 3-(2,4-Dichloro-5-methoxyphenyl)-2-sulfanyl-4(3H)-quinazolinone]
Mitotracker Deep Red mean fluorescence intensity (mitochondrial mass) [1]: significantly higher | mitochondrial morphology [2]: more interconnected mitochondria | Wnt/TCF pathway luciferase activity [3]: inhibition | mitochondrial superoxide production (MitoSOX) [4]: significantly increased | Notch/Rbp pathway luciferase activity [5]: inhibition | Hedgehog/GLI pathway luciferase activity [6]: inhibition | production of total ROS ([7]; 5 days of treatment): slight trend toward an increase | general oxidative stress levels ([7]; after exposure to mDIVI-1): did not change | TGFβ/SMAD pathway luciferase activity [8]: inhibition | abundance of CD24−/CD44+ subpopulation ([9]; MCF7 grown as monolayers, 10 or 50 μM, vs vehicle): not reduced | amount of CD24−/CD44+ cells ([9]; MCF7 in suspension, dose-dependent): increased
